{"source": "patent US20150329558A1", "about": "“FUSED HETEROCYCLIC COMPOUNDS AS ION CHANNEL MODULATORS” (Gilead Sciences, Inc., priority 2011, published 2015)", "key": {"hERG potassium channel": {"target": "hERG potassium channel (Homo sapiens, UniProt Q12809)", "sequence (Q12809 whole entry)": "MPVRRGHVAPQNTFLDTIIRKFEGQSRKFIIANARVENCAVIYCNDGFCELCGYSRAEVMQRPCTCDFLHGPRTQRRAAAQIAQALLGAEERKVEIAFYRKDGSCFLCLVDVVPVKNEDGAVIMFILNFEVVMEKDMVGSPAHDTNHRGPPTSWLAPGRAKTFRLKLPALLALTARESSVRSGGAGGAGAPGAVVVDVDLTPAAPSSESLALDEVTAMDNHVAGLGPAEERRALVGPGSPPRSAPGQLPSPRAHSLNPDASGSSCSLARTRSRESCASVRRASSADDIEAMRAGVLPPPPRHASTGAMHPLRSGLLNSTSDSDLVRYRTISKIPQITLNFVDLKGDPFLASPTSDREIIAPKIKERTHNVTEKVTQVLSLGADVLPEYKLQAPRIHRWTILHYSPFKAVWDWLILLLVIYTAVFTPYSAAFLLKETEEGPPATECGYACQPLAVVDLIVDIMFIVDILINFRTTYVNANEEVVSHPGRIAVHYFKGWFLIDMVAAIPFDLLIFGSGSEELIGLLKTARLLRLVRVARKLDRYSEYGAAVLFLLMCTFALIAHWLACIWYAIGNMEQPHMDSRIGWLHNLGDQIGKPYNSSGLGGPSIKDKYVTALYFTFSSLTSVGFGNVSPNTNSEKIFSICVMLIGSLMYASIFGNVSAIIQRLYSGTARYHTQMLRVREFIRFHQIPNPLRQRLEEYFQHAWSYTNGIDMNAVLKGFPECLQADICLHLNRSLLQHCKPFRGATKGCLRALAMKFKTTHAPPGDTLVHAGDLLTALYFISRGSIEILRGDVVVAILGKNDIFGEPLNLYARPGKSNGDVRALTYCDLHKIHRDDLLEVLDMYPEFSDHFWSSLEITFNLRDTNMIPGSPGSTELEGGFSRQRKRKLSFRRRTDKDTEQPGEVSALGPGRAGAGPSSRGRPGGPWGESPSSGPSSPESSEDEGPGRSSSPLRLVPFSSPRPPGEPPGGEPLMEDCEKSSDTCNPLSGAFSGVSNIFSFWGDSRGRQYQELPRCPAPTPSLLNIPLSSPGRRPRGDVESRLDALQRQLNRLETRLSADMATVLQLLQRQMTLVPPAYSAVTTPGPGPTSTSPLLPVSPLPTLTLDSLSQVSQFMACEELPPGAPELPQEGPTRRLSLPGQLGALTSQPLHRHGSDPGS", "experiment": "hERG screening assay (PatchXpress, CHO cells)", "assay_type": "cell-based", "details": "% inhibition at 1 μM", "protocol": "Compounds were also tested for their effect to block the hERG K^+ channel.\nCompounds were screened to test their activity in blocking the hERG potassium channel at AVIVA Biosciences (San Deigo, Calif., USA). The hERG channel is heterologously expressed in a CHO (Chinese Hamster Ovary) cell line. Cells were maintained with standard tissue culture procedures and stable channel expression was maintained with 500 μg/mL G418 in the culture medium. Cells were harvested for testing on the PatchXpress 7000A automated patch clamp with Accumax (Innovative Cell Technologies, San Diego, Calif.) to isolate single cells.\nThe following solutions were used for electrophysiological recordings. The external solution contained: 2 mM CaCl2; 2 mM MgCl2; 4 mM KCl; 150 mM NaCl; 10 mM Glucose; 10 mM HEPES (pH 7.4 with 1M NaOH; osmolarity, ˜310 mOsm). The internal solution contained: 140 mM KCl, 10 mM MgCl2, 6 mM EGTA, 5 mM HEPES, 5 mM ATP (pH adjusted to 7.25 with KOH; osmolarity, ˜295 mOsm).\nhERG channels were activated when the voltage was first stepped to −50 mV for 300 ms from the −80 mV holding potential and then stepped to +20 mV for 5 seconds. At +20 mV the channels open and then largely inactivate, so the currents are relatively small. Upon returning to −50 mV from +20 mV, hERG currents transiently become much larger as inactivation is rapidly removed and then the channel closes. The first step to −50 mV for 300 ms was used as a baseline for measuring the peak amplitude during the step to −50 mV after channel activation. The peak tail current at −50 mV was measured both under control conditions and after addition of compound, each cell serving as its own control.\nAll compounds were prepared as 10 mM DMSO stocks in glass vials. Stock solutions were mixed by vigorous vortexing and sonication for about 2 minutes at room temperature. For testing, compounds were diluted in glass vials using an intermediate dilution step in pure DMSO and then further diluted to working concentrations in external solution. Dilutions were prepared no longer than 20 minutes before use.\nFor the electrophysiological recordings, after achieving the whole-cell configuration, cells were monitored for 90 seconds to assess stability and washed with external solution for 66 seconds. The voltage protocol described above was then applied to the cells every 12 seconds and throughout the whole procedure. Only cells with stable recording parameters and meeting specified health criteria were allowed to enter the compound addition procedure.\nExternal solution containing 0.1% DMSO (vehicle) was applied to the cells first to establish the control peak current amplitude. After allowing the current to stabilize for 3 to 5 minutes, 1 μM and then 10 μM test compounds were applied. Each compound concentration was added 4 times and cells were kept in test solution until the effect of the compound reached steady state or for a maximum of 12 minutes. After addition of test compound, a positive control (1 μM Cisapride) was added and must block >95% of the current for the experiment to be considered valid. Washout in the external solution compartment was performed until the recovery of the current reached steady state."}, "[1]": {"experiment": "Microsomal stability assay, dog", "assay_type": "in vitro ADME", "details": "metabolic stability, dog liver microsomes 0.5 mg/mL, substrate 3 uM", "how_it_was_run": "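Liver microsomes at 0.5 mg/mL protein in 100 mM KPO4 buffer, incubated with 3 uM compound and NADPH-regenerating system, run in duplicate. Samples taken at 2, 12, 25, 45 and 65 min and quenched in MeOH/ACN/water before analysis.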"}, "hNav1.1": {"target": "T1, hNav1.1 (Homo sapiens, UniProt P35498)", "T1 construct": "expressed in transfected cells; host or cells: HEK293, transient transfection (α1:β1:β2 = 10:1:1)", "experiment": "Nav1.1 use-dependent block, whole-cell voltage clamp", "assay_type": "cell-based", "details": "use-dependent block 10 Hz, read-out: NAv1.1*-CHAN TEST-UDB-10 HZ-"}}, "data": [{"smiles": "CC1Oc2ccc(-c3ccc(OC(F)(F)F)cc3)cc2C(=O)N1Cc1ncccn1", "note": "(stereo not drawn) [VIII-7, 2-methyl-3-(pyrimidin-2-ylmethyl)-6-(4-(trifluoromethoxy)phenyl)-2H-benzo[e][1,3]oxazin-4(3H)-one]", "values": [{"measurement": "HERG*", "setting": "hERG potassium channel", "value": "<10", "unit": "%"}, {"measurement": "MS Dog THalf", "setting": "[1]", "value": 392, "unit": "min"}, {"measurement": "inhibition at 1 µM", "setting": "hNav1.1", "value": 12.1, "unit": "%"}]}]}
